Assay results taken from patent publication US20260176320A1, “MODULATORS OF G-PROTEIN COUPLED RECEPTORS” (priority 2018, published 2026).
Read-outs that look alike come from different tables or passages of the source. Numbered stars: 1 amine (or outer) side, 2 acyl side, 3 side chain; on linkers, the order of the positions; unused ones are H or OH. Square brackets hold non-standard residues; d marks the D form. Side chains are listed from the residue outwards. Peptide text beside a SMILES is read from it. * marks the point of attachment. γGlu = O=C(O)[C@H](CCC(=O)[*:2])N[*:1]; X2 = O=C(CSCC(=O)*)NCCN1C(=O)CSC1=O; Palmitoyl = CCCCCCCCCCCCCCCC(=O)*; Aib = CC(C)(N)C(=O)O

Assays:
GLP-1R = GLP-1R (Homo sapiens, UniProt P43220); test: HitHunter cAMP assay (GLP-1R); type: cell-based; conditions: cAMP; for Emax: read-out: (Emax) GLP-1R
Method in brief: (§1)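 Duplicate 22-point, 2-fold agonist titrations applied to receptor-expressing suspension cells in IBMX-containing HBSS; 30 min RT stimulation. Read: luminescent cAMP immunocompetition after O/N dark incubation.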

GIP-R = target: T1, GIP-R (Homo sapiens, UniProt P48546); test: HitHunter cAMP assay (GIP-R); type: cell-based; conditions: cAMP; for Emax: read-out: (Emax) GIP-R
T1 sequence (P48546 22-466): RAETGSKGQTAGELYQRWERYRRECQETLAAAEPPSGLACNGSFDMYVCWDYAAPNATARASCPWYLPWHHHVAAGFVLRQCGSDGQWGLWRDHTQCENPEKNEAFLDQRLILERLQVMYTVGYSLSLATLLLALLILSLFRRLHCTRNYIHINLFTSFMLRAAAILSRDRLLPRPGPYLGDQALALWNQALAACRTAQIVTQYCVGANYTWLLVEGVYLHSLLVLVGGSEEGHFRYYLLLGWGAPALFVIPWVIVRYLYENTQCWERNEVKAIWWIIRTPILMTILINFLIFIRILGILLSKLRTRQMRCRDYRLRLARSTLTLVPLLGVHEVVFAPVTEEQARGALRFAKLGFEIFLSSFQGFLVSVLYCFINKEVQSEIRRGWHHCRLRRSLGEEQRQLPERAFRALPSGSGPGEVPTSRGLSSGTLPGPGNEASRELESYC
Method in brief: as §1

Chain of GLP-1R (P43220 24-463): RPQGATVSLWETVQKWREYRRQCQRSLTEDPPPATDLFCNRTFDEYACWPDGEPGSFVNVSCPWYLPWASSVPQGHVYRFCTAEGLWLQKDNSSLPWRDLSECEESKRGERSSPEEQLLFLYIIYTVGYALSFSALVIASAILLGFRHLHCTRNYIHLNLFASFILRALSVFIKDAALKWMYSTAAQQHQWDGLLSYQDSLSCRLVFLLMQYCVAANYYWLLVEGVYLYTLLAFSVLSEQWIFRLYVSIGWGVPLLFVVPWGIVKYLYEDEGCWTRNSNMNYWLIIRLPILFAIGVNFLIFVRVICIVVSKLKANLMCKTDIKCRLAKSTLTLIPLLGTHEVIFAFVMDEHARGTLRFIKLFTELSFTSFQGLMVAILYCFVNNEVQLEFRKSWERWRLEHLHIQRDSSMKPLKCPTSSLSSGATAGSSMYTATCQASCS

Row | SMILES | Emax (GLP-1R; Table 3) | EC50 (GLP-1R; Table 3, read-out: EC50 GLP-1R/nM) | Emax (GLP-1R; Table 3A) | EC50 (GLP-1R; Table 3A, read-out: EC50 GLP-1R/nM) | Emax (GIP-R; Table 3) | EC50 (GIP-R; Table 3, read-out: EC50 GIP-R/nM) | Emax (GIP-R; Table 3A) | EC50 (GIP-R; Table 3A, read-out: EC50 GIP-R/nM) | EC50 (GLP-1R; EC50 GLP-1R/nM, Table 3) | EC50 (GLP-1R; EC50 GLP-1R/nM, Table 3A) | EC50 (GIP-R; EC50 GIP-R/nM, Table 3) | EC50 (GIP-R; EC50 GIP-R/nM, Table 3A)
1 | CCCCCCCCCCCCCCCC(=O)N[C@@H](CCC(=O)NCCCC[C@H](NC(=O)[C@H](CO)NC(=O)[C@@H]1CCCN1C(=O)[C@@H]1CCCN1C(=O)[C@@H]1CCCN1C(=O)[C@H](C)NC(=O)CNC(=O)[C@H](CO)NC(=O)[C@H](CO)NC(=O)[C@@H]1CCCN1C(=O)CNC(=O)CNC(=O)[C@H](C)NC(=O)[C@H](CC(C)C)NC(=O)[C@H](CC(C)C)NC(=O)[C@H](Cc1c[nH]c2ccccc12)NC(=O)[C@H](CC(N)=O)NC(=O)[C@@H](NC(=O)[C@H](Cc1ccccc1)NC(=O)[C@H](CCC(=O)O)NC(=O)C(C)(C)NC(=O)[C@@H](NC(=O)[C@H](C)NC(=O)[C@H](CCC(N)=O)NC(=O)[C@H](CCCCN)NC(=O)[C@H](CC(=O)O)NC(=O)[C@H](CC(C)C)NC(=O)[C@H](Cc1ccc(O)cc1)NC(=O)[C@@H](NC(=O)[C@H](CO)NC(=O)[C@H](Cc1ccc(O)cc1)NC(=O)[C@H](CC(=O)O)NC(=O)[C@H](CO)NC(=O)[C@@H](NC(=O)[C@H](Cc1ccccc1)NC(=O)[C@@H](NC(=O)CNC(=O)[C@H](CCC(=O)O)NC(=O)CSCC(=O)NCCN1C(=O)CSC1=O)[C@@H](C)O)[C@@H](C)O)[C@@H](C)CC)C(C)C)C(C)C)C(N)=O)C(=O)O [Compound 80] (X2-EGTFTSDYSIYLDKQAV[Aib]EFVNWLLAGGPSSGAPPPSK([γGlu-Palmitoyl])-NH2) | 92% | 0.1 to 1 nM | 92% | 0.1 to 1 nM | 73% | 1 to 10 nM | 73% | 1 to 10 nM | – | – | – | –
2 | CCCCCCCCCCCCCCCC(=O)N[C@@H](CCC(=O)NCCCC[C@H](NC(=O)[C@H](CO)NC(=O)[C@@H]1CCCN1C(=O)[C@@H]1CCCN1C(=O)[C@@H]1CCCN1C(=O)[C@H](C)NC(=O)CNC(=O)[C@H](CO)NC(=O)[C@H](CO)NC(=O)[C@@H]1CCCN1C(=O)CNC(=O)CNC(=O)[C@H](C)NC(=O)[C@H](CC(C)C)NC(=O)[C@H](CC(C)C)NC(=O)[C@H](Cc1c[nH]c2ccccc12)NC(=O)[C@H](CC(N)=O)NC(=O)[C@@H](NC(=O)[C@H](Cc1ccccc1)NC(=O)[C@H](CCC(=O)O)NC(=O)C(C)(C)NC(=O)[C@H](C)NC(=O)[C@H](C)NC(=O)[C@H](CCC(N)=O)NC(=O)[C@H](CCCCN)NC(=O)[C@H](CC(=O)O)NC(=O)[C@H](CC(C)C)NC(=O)[C@H](Cc1ccc(O)cc1)NC(=O)[C@@H](NC(=O)[C@H](CO)NC(=O)[C@H](Cc1ccc(O)cc1)NC(=O)[C@H](CC(=O)O)NC(=O)[C@H](CO)NC(=O)[C@@H](NC(=O)[C@H](Cc1ccccc1)NC(=O)[C@@H](NC(=O)CNC(=O)[C@H](CCC(=O)O)NC(=O)CSCC(=O)NCCN1C(=O)C[C@@H](C)C1=O)[C@@H](C)O)[C@@H](C)O)[C@@H](C)CC)C(C)C)C(N)=O)C(=O)O [Compound 89] | 108% | – | 108% | – | 81% | – | 81% | – | 1 to 10 nM | 1 to 10 nM | 0.1 to 1 nM | 0.1 to 1 nM
